Measured values as given in PMC10934653, “Identification of Hypoglycemic Glycolipids from Ipomoea murucoides by Affinity-Directed Fractionation, In Vitro, In Silico and Dynamic Light Scattering Analysis” (Plants, 2024).
Converted amounts (≈) assume the structure as drawn.

Biological target: T1, hepatic glucose-6-phosphatase (G6Pase)
T1 construct: gene G6pc1; native, microsomal fraction from livers of starved Wistar rats; not purified; with Glucose-6-phosphate exchanger SLC37A4
Experiment: colorimetric phosphate release assay, rat liver microsomes
Format: biochemical
Settings: 80 mM glucose-6-phosphate, 40 mM imidazole, 250 mM sucrose, pH 7, 20 °C, 20 min; positive control

IC50: 122.5 µg/mL (≈ 346 µM)
SMILES: O=C(/C=C/c1ccc(O)c(O)c1)O[C@@H]1C[C@](O)(C(=O)O)C[C@@H](O)[C@H]1O [chlorogenic acid]
